# Experimental data from patent US8076288B2 (priority 2004, dated 2011).
# What was measured:
# amylin receptors = biological target: T1, amylin receptors (Rattus norvegicus, UniProt P32214); format: binding
# T1 construct: nuclueus accumbens membranes prepared from rat brain; from tissue; host or cells: rat basal forebrain / nucleus accumbens membranes (male Sprague-Dawley rats)
# T1 sequence (P32214 25-516): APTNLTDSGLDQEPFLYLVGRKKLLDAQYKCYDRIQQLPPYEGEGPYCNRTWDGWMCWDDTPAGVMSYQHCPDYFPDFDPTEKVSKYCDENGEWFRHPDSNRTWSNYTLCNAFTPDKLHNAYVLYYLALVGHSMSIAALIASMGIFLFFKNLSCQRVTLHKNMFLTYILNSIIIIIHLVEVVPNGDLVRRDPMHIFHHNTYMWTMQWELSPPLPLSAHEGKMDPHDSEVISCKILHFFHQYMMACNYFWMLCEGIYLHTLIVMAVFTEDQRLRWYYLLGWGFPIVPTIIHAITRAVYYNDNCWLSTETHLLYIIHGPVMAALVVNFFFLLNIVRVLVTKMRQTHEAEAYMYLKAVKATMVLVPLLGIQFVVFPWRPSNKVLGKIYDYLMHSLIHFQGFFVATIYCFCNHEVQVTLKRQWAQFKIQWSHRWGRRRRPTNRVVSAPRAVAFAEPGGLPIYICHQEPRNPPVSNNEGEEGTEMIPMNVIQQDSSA
# T1 sequence (Q9JJ74 27-148 partner): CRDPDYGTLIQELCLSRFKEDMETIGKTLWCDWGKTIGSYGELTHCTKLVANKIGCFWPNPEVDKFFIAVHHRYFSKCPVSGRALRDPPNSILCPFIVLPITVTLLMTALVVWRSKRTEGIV
# CGRP receptors = biological target: T2, CGRP receptors (Homo sapiens, UniProt O60894+Q16602); format: binding
# T2 construct: SK-N-MC and L6 cells expressing endogenous CGRP receptors; endogenous in cells; host or cells: SK-N-MC cells (membranes)
# calcitonin receptor = biological target: T3, calcitonin receptor (Rattus norvegicus, UniProt P32214); format: binding
# T3 construct: host or cells: general text: 'CHO cells or T47D cells'
# T3 sequence (P32214 25-479 isoform P32214-2 limits assumed): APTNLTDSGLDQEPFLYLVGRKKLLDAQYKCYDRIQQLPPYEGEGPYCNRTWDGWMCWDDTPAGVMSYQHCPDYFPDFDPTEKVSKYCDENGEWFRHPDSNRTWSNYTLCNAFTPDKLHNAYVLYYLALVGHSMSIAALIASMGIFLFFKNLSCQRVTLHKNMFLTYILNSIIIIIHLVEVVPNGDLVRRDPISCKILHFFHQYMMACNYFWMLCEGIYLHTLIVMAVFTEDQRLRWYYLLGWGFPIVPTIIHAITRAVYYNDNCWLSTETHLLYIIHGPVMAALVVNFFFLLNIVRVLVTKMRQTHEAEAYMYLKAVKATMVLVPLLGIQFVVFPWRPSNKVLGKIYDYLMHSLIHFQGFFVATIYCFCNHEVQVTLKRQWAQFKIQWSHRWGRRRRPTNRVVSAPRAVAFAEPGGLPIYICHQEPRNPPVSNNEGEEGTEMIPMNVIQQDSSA
# CT receptor = biological target: T4, CT receptor (Rattus norvegicus, UniProt P32214); assay: CT cyclase (C1A) assay; format: biochemical
# T4 construct: host or cells: general text: 'CHO cells or T47D cells'
# T4 sequence (P32214 25-479 isoform P32214-2 limits assumed): T3 sequence (P32214 25-479 isoform P32214-2 limits assumed)
# NIH/Swiss mice = conditions: for 60 min ED50: food intake, i.p.
# C57BL/6 mice (DIO) = conditions: 250 nmol/kg/day
# T2 sequence (Q16602 23-461): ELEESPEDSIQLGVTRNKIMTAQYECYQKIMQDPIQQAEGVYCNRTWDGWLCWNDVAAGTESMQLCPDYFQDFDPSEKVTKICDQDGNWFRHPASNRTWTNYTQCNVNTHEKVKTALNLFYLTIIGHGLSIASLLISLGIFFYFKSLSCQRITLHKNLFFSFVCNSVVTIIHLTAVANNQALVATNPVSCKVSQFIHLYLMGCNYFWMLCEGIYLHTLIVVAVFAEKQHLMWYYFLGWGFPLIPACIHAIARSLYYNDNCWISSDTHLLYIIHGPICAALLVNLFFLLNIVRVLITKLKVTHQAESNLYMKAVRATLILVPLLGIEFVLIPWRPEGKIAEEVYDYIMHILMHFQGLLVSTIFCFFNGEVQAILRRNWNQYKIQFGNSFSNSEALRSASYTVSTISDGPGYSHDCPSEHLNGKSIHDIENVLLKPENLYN
# T2 sequence (O60894 27-148 partner): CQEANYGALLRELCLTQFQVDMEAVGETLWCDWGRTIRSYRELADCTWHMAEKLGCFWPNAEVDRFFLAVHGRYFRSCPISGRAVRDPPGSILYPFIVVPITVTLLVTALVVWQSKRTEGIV
substance,measurement,setting,value
"[Ser117, dLeu119]leptin(116-122)-Amylin(1-7)-[^11,18Arg]sCT(8-27) -Amylin(33-37) [Compound 16]",binding to amylin receptor,amylin receptors,bound
same,binding to CGRP receptor,CGRP receptors,some binding
same,binding to CT receptor,calcitonin receptor,bound
same,activation of the CT receptor (CIA assay),CT receptor,able to activate
same,anorexigenic effect in food intake assay,NIH/Swiss mice; 1 mg/kg,anorexigenic
same,anorexigenic effect compared with rat amylin,NIH/Swiss mice; rat amylin at 25 nmol/kg,superior to rat amylin
DY(SO3) MGWMDF-NH2 [CCK-8],% change (body weight) in DIO assay at day 2,C57BL/6 mice (DIO); day 2,~−2.8%
same,body weight in DIO assay at day 7,C57BL/6 mice (DIO); day 7,rebounded to the HF diet control level
leptin,activity in food intake assay,"NIH/Swiss mice; mouse, in vivo",not active
"HGEGAFTSDLSKQLEEEAVRLFIEFLKN-NH2 [Compound 12, reference compound]",60 min ED50,NIH/Swiss mice,13 nmol/kg
"KCNTATCATQRLANFLVRSSNNLGPVLPPTNVGSNTY-NH2 [Rat Amylin, reference compound]",60 min ED50,NIH/Swiss mice,9 nmol/kg
